From patent US4704361A, “Pharmaceutical compositions containing the cytidine monophospate of 5-acetamido-3,5-dideoxy-D-glycero-D-galactononulosaminic acid and a method for preparing said compound” (Compagnia di Ricerca Chimica S.p.A., priority 1983, dated 1987)
Where two headings read alike, the source gives them in different places. Blank lines part the entries; values can stand above or below the compound they belong to.

Tests used:
Striatal gangliosides = experiment: Levels of striatal gangliosides of the rat following injuries by kainic acid; type: in vivo; conditions: for Striatal gangliosides (NANA content): relative to control = 100%
Method: Male rats, Charles River CD, body weight of 180-200 g, have been divided into 4 groups, each group having 20 animals. The first group has been classified as the control group, the second group has been treated with physiological solution, the third group has been treated with kainic acid and the fourth group has been treated with CMP-NANA (20 mg/kg/day, i.p.) and kainic acid.
The treatment with CMP-NANA has been started one week before the treatment with kainic acid and has been continued until the animals have been sacrified.
The animals have been anesthetized with pentobarbital (60 mg/kg i.p.) and then treated with kainic acid (2 μg in 1 μl of the physiological solution), that has been injected into striatum.
The control rats have been treated with an equal volume (1 μl) of the physiological solution.
After 7 days the rats have been sacrified and the striatum has been removed. Each single determination has been performed with the pool of 5 samples. The gangliosides have been extracted and determined (as NANA content) as described previously.

LD50 in albino rats = conditions: rat, in vivo, albino rats of 20±1 g
Acid hydrolysis at pH 1 = type: physicochemical; conditions: pH 1, 10 min, room temperature
Method: [α]D =-11.8° (c=0.2, water).

Storage stability = type: physicochemical; conditions: powder, -10° C.
Method: A 20 ml aliquot (containing about 8000 units of the enzyme) of the enzyme, CTP (4-5 mmol), N-acetylneuraminic acid (1 mmol) were added in portions, during 2 hours, to the solution (200 ml) of Tris-buffer, Mg^+2, and β-thio-propionic acid. The last three components were present in the concentrations 0.4, 0.04, and 0.002M, respectively. The mixture was incubated at 36°±0.2° C. for 6 hours, then diluted 8 times with water and rised slowly through a column of Dowex 1×4, bicarbonate form, 50-100 mesh (0.6 l resin/mmol of I). First washing was performed with 1 mM ammonium hydroxide, then with 3-4 vol. of a linear gradient from 0.02-2.0M triethylammonium hydrogencarbonate, pH 7.8.

[1] = test system: Neuro-2a neurine neuroblastoma; experiment: In vitro neuronal maturation, index of maturation of neuroblastoma cells; type: cell-based; conditions: for Index of maturation (I.M.): standard media 10 ± 2, I.M. = L.P. × N.P.
Method: Neuro-2a neurine neuroblastoma (American Type Culture Collection-CCL 131) was grown in the medium consisting of fecal calf serum (Irvine Scientific, Irvine, Ca.), to which non-essential amino acids, antibiotic (5-20 mg %), and bicarbonate (50-100 mg %), were added. The cells were grown routinely on corning plastic tissue-culture flasks.
Cells for assay were plated on corning plastic Petri dishes, in the medium with or without CMP-NANA. In order to examine the role of CMP-NANA on in vitro neuron maturation, it was incorporated into the culture media at the time of plating or 24 or 48 hours postplating. The mean number and length of cell processes were repeatedly determined for a minimum of 100 cells per treatment group, to provide a semiquantitative index of neuron maturation (Table 5).
Index of maturation (I.M.) in Table 5 is expressed as: I.M.=L.P.×N.P., where:
L.P. 10:=the length of process to nearest 10μ
N.P.=Total number of processes
The effects of the various concentrations of CMP-NANA were evaluated with high resolution Nomarski optics.

Cerebral glycoproteins = Cerebral glycoproteins content (NANA) in rats on the 21st day of life; type: in vivo, rat
Method: (§1) The study has been performed with 16 couples of the rats Charles River in their reproductive age, selected by uniform weight. On the third day of gestation they have been arbitrarily divided into 4 groups. […] Dietetic treatment have been continued during the entire periods of gestation and nursing.
(§2) Between the 14th and the 21st day of the life, the puppies of the 2nd and the 4th group have been treated with 20 mg/kg of CMP-NANA (Sigma Chemical Co.) i.p., the 1st and the 3rd group have been treated with the equal volume of physiological solution.
(§3) On the 21st day two male puppies from each group have been fixed on the holed table and for 20 minutes placed under the open field experiment. The periods related to the explorative activity have been observed and quantified. At the end of the experiment, the animals have been sacrified by decapitation, and their brains have been removed and examined for the content of the gangliosides (extractions performed by the method of G. Tettamanti et al., Biochim. Biophys. Acta 296, 160-170 (1973) as well as of the glycoproteins (extractions by the method of B. Berra et al., in Membranes in Tumor Growth, Galeotti et al., Eds., Elsevier, pp. 81-87, 1982; F. Omodeo Sale et al., Cell Mol. Biol. 27, 455-458, 1981).
(§4) In both cases the content of NANA has been determined.

Cerebral gangliosides = Cerebral gangliosides content (NANA) in rats on the 21st day of life; type: in vivo, rat
Source text: The study has been performed with 16 couples of the rats Charles River in their reproductive age, selected by uniform weight. On the third day of gestation they have been arbitrarily divided into 4 groups. The two first groups have been fed with a semisynthetic diet that contained 10% of casein. Dietetic treatment have been continued during the entire periods of gestation and nursing.
as §2, §3, §4

rats = experiment: Open field experiment, explorative activity of rat puppies on the 21st day of life; type: in vivo
Method: as §1, §2, §3

Neuro-2a cells = experiment: CMP-NANA-induced neurite formation (sprouting) in cultured cells; type: cell-based
Method: Neuro-2a cells (American Type Culture Collection, Rockville, USA) were seeded at standard conditions (10^4 -10^6 cells/100 mm dish). Incubation time for quantification of sprouting was 24 hours. Thereafter fixation of the cells was performed by means of 3% glutaraldehyde containing buffered saline. Quantitative determination of nerve cell growth was performed with Zeiss D-7082 Micreo-Videomat.
Neurite sprouting was used as the parameter for nerve cell differentiation. The samples fixed in formaline were stained for better contrast.

[2] = Adsorption and distribution of labeled CMP-NANA in the rat; type: in vivo; conditions: 20 mg/kg i.m.; for Radioactivity level: Blood; for tissue uptake at 0.5 h / tissue uptake at 1 h / tissue uptake at 2 h / tissue uptake at 4 h: im, read-out: Radioactivity level
Method: CMP-NANA [9-^3 H] has been purchased from NEN (New England Nuclear, 6072 Dreieich, West Germany).
The rats fasting for about 18 hours, have been treated with CMP-NANA, dissolved in the phosphate buffer, at the dose of 20 mg/kg i.m. (specific activity=1000 mCi/mg). After 30 min., 1 hour, 2 hours and 4 hours periods the animals have been sacrified in the groups of 4, then liver, kidney and brain have been taken away from the animals and accurately weighted.
100 μg samples of the previous organs, and an analogous sample of the blood have been dissolved in Soluene 350 (Packard) and have been counted on the scintillation instrument in the liquid phase, on addition of the scintillating liquid.
The measurements have been quantized using a canal to canal-ratio technique. Table 3 illustrates the averaged results of all measurements.

[3] = normal and hypoproteinic diet, 20 mg/kg i.p.

Structure (SMILES): CC(=O)N[C@H]1[C@H]([C@H](O)[C@H](O)CO)O[C@](OP(=O)(O)OC[C@H]2O[C@@H](n3ccc(N)nc3=O)[C@H](O)[C@@H]2O)(C(=O)O)C[C@@H]1O [CMP-NANA, cytidine monophosphate of 5-acetamido-3,5-dideoxy-D-glycero-D-galactononulosaminic acid]
level of gangliosides in the striatum (in words) (Striatal gangliosides; CMP-NANA 20 mg/kg/day i.p. with kainic acid): hindered the diminuation of the level of gangliosides in the striatum | Striatal gangliosides (NANA content) (Striatal gangliosides; Group 4: kainic acid (2 μg into striatum) and CMP-NANA 20 mg/kg/day i.p.): 88% | LD50 (LD50 in albino rats; ip, intraperitoneal): 900 mg/kg | LD50 (LD50 in albino rats; po, per os): 2400 mg/kg | hydrolysis in acid (Acid hydrolysis at pH 1): affording CMP and N-acetylneuraminic acid (1.0:1.0 mol) | storage stability (Storage stability): at least one year | change of I.M. versus standard media (in words) ([1]; 2 μg/ml): doubled | change of I.M. versus standard media (in words) ([1]; 20 μg/ml): ten time higher | Index of maturation (I.M.) ([1]; SM + 1 μg/ml): 20 ± 5 | Index of maturation (I.M.) ([1]; SM + 5 μg/ml): 45 ± 5 | Index of maturation (I.M.) ([1]; SM + 10 μg/ml): 68 ± 10 | Index of maturation (I.M.) ([1]; SM + 20 μg/ml): 92 ± 10 | Cerebral glycoproteins (Cerebral glycoproteins; Group 2: 20% casein + CMP-NANA 20 mg/kg i.p., relative to 2nd group = 100% (reference), p < 0.01-0.001 vs nontreatment (Group 1: 79)): 100% | Cerebral glycoproteins (Cerebral glycoproteins; Group 4: 10% casein + CMP-NANA 20 mg/kg i.p., relative to 2nd group = 100%, p < 0.01-0.001 vs nontreatment (Group 3: 69)): 75% | NANA content in the cerebral glycoproteins (in words) (Cerebral glycoproteins; [3]): inhanced in statistically significant manner | Cerebral gangliosides (Cerebral gangliosides; Group 2: 20% casein + CMP-NANA 20 mg/kg i.p., relative to 2nd group = 100% (reference), p < 0.01-0.001 vs nontreatment (Group 1: 75)): 100% | Cerebral gangliosides (Cerebral gangliosides; Group 4: 10% casein + CMP-NANA 20 mg/kg i.p., relative to 2nd group = 100%, p < 0.01-0.001 vs nontreatment (Group 3: 41)): 68% | NANA content in the cerebral gangliosides (in words) (Cerebral gangliosides; [3]): inhanced in statistically significant manner | Explorative activity (rats; Group 2: 20% casein + CMP-NANA 20 mg/kg i.p., relative to 2nd group = 100% (reference), p < 0.01-0.001 vs nontreatment (Group 1: 47)): 100% | Explorative activity (rats; Group 4: 10% casein + CMP-NANA 20 mg/kg i.p., relative to 2nd group = 100%, p < 0.01-0.001 vs nontreatment (Group 3: 12)): 52% | explorative activity (in words) (rats; [3]): inhanced in statistically significant manner | sprouting of the nerves (in words) (Neuro-2a cells; 50 μg/ml): nearly doubled | dose-response relationship for number of neurites (in words) (Neuro-2a cells; 5-50 μg/ml, 24 hours): close dose-response relationship | increase of sprouting above the original steady-state value (Neuro-2a cells; 30 μ/ml (so in the source)): ~50% | activity at 5 µg/mL (Neuro-2a cells; Mus musculus, N2a, 5 μg/ml, 24 hours, 0 μg/ml = 100 ± 15, read-out: Extent of sprouting): 110 ± 15% | activity at 10 µg/mL (Neuro-2a cells; Mus musculus, N2a, 10 μg/ml, 24 hours, 0 μg/ml = 100 ± 15, read-out: Extent of sprouting): 117 ± 20% | activity at 20 µg/mL (Neuro-2a cells; Mus musculus, N2a, 20 μg/ml, 24 hours, 0 μg/ml = 100 ± 15, read-out: Extent of sprouting): 132 ± 25% | activity at 30 µg/mL (Neuro-2a cells; Mus musculus, N2a, 30 μg/ml, 24 hours, 0 μg/ml = 100 ± 15, read-out: Extent of sprouting): 145 ± 30% | activity at 50 µg/mL (Neuro-2a cells; Mus musculus, N2a, 50 μg/ml, 24 hours, 0 μg/ml = 100 ± 15, read-out: Extent of sprouting): 178 ± 35%

Radioactivity level ([2]; 30 min): 12.2 % of the administrated dose pe | Radioactivity level ([2]; 1 hr): 5.7 % of the administrated dose pe | Radioactivity level ([2]; 2 hrs): 3.2 % of the administrated dose pe | Radioactivity level ([2]; 4 hrs): 1.9 % of the administrated dose pe | tissue uptake at 0.5 h ([2]; Brain, 30 min): 6.2 %ID/g | tissue uptake at 1 h ([2]; Brain, 1 hr): 7.8 %ID/g | tissue uptake at 2 h ([2]; Brain, 2 hrs): 4.9 %ID/g | tissue uptake at 4 h ([2]; Brain, 4 hrs): 2.4 %ID/g | tissue uptake at 0.5 h ([2]; Kidney, 30 min): 2.6 %ID/g | tissue uptake at 1 h ([2]; Kidney, 1 hr): 5.2 %ID/g | tissue uptake at 2 h ([2]; Kidney, 2 hrs): 3.3 %ID/g | tissue uptake at 4 h ([2]; Kidney, 4 hrs): 1.6 %ID/g | tissue uptake at 0.5 h ([2]; Liver, 30 min): 3.9 %ID/g | tissue uptake at 1 h ([2]; Liver, 1 hr): 4.7 %ID/g | tissue uptake at 2 h ([2]; Liver, 2 hrs): 2.8 %ID/g | tissue uptake at 4 h ([2]; Liver, 4 hrs): 0.9 %ID/g
Structure (SMILES): [3H]C(O)[C@@H](O)[C@@H](O)[C@@H]1O[C@](OP(=O)(O)OC[C@H]2O[C@@H](n3ccc(N)nc3=O)[C@H](O)[C@@H]2O)(C(=O)O)C[C@H](O)[C@H]1NC(C)=O (stereo partly drawn) [[^-3 H]-labeled CMP--NANA]
radioactivity decline in blood and organs (in words) [2]: rapidly diminished in the blood, and more slowly in the organs | radioactivity level of the brain relative to liver and kidney (in words) [2]: inferior to those of the liver and kidney

Structure (SMILES): C=C(C)[C@H]1CN[C@H](C(=O)O)[C@H]1CC(=O)O [kainic acid, reference compound]
Striatal gangliosides (NANA content) (Striatal gangliosides; Group 3: kainic acid alone, 2 μg into striatum): 66%
